Test results published in patent US10266545B2, “Coumarin derivative as antiviral agent, pharmaceutical composition thereof, its preparation and use” (I-NOVA MEDICINSKA ISTRAZIVANJA D.O.O., priority 2016, dated 2019).

System: HIV-1
Experiment: Microtiter infectivity assay: protection of MT-4 cells from cytopathic effect of HIV-1 (MTT)
Type: cell-based, human immunodeficiency virus 1 (HIV-1) subtype B
Settings: for IC50: Human immunodeficiency virus 1, MT4, inhibits 50% viral replication; for Survival (% protection): MT-4 cells infected with HIV-1; for SI = CC50/IC50: selectivity index, MT-4 cells, MTT assay
Experimental: The first study of antiviral activity of compound 1 and the control compound 2 was performed on example of its influence on replication of human immunodeficiency virus 1 (HIV-1) by microtiter infectivity assay in cell culture and by evaluation of concentration of compound 1 or 2, which inhibits virus replication by 50% (IC50) as well as by selectivity index (SI).
The cell line used in this study was also the MT-4 cell line as described above.
A microplate assay of infectivity in cell culture, based on consideration of a cytopathic effect of the virus was described in the literature, see reference 8. At least 4 different concentrations: 10×MNC, MNC^−1, MNC^−2, and MNC^−3 were used.
In each trial, the following controls were set: • (i) cell control—only cells in culture medium and not infected with the virus; and • (ii) viral control—one column to cells infected with the virus were added only medium (200 μl) without the test compound 1 or the control compound 2.
The activity of compound 1 or control compound 2 against the cytopathic effect of HIV-1 was expressed as percentage (%) protection (survival) of the cells defined by the following formula:
[formula] wherein: • ODVS=absorption of cells infected and treated with compound 1 or 2 • ODVC=absorption of the virus-infected cells (virus control without compound 1 or 2), and • ODCC=absorption of uninfected cells (cell control)
The inhibitory concentration 50% (IC50) was defined as the concentration of test compound 1 or control compound 2, expressed in mM, which inhibits 50% viral replication. IC50 was determined directly from the curve “dose (concentration)—response (anti-HIV effect)”. The IC50 was expressed as percentage (%) of: • (i) cell viability which was obtained by the MTT assay; or • (ii) percentage (%) inhibition of enzyme reverse transcriptase (RT) activity.
On the basic of the data about CC50 and IC50 for the test substance 1 or control substance 2, the selectivity index (SI) value was estimated.
The compounds 1 or 2 were dissolved in dimethyl sulfoxide (DMSO; Sigma-Aldrich, USA) to a concentration of 1 mol/l (1 M) and after diluted in cell growth medium RPMI 1640 with 2% heat inactivated fetal bovine serum (FBS; Sigma-Aldrich, USA). All further solutions of compounds 1 or 2 were prepared ex tempore.
MT-4 cell line was not infected with HIV-1 and was used as a classic model for reproduction of acute infection with HIV-1. The cells were cultivated in RPMI 1640 growth medium supplemented with 15% fetal bovine serum (FBS; Sigma-Aldrich, USA), 100 U/ml penicillin G sodium (Sigma-Aldrich, USA), and 100 μg/ml streptomycin sulphate (Sigma-Aldrich, USA).
HIV-1 culture fluid was chronically infected and producing HIV-1 subtype B cell line H9/HTLV III B. The culture fluid was centrifuged and collected as a virus stock. The latter, used in the experiments, was of predetermined infectivity of 2·10^6 infectious virions/ml according to the microtiter infectivity assay based on the cytopathic effect of HIV, through ingestion of MTT, containing protein 24 antigen (p24) and enzyme reverse transcriptase (RT).
After counting the cells, they were resuspended in growth medium at a concentration of 6-8·10^4 cells/100 μl. Followed screening of cell suspensions (100 μl/well of that above) into sterile 96-well plates pretreated with poly-L-lysine (PLL). Since the final volume of the culture medium in each well was 200 μl, additional 100 μl of 10% FBS (containing no cells) was added. At the end of rows and columns were not seeded cells, but only culture medium without FBS.
After 24 h, the supernatant was decanted and added in 50 μl HIV-1 in dilution 10^−1. One or two columns were not infected, acting as the control cells. The plate was placed in an incubator at 37° C. and 5% content of CO2, for 1 h. The virus was then removed and in one or two columns of infected cells were added 200 μl medium containing the appropriate concentration of the test substance 1 or the control substance 2. […]

[1] = MT-4 cells infected with HIV-1, MTT assay

Compound	IC50 [1] [nM]	Survival (% protection) (concentration 0.000001 mM) [%]	Survival (% protection) (concentration 0.00001 mM) [%]	Survival (% protection) (concentration 0.0001 mM) [%]	Survival (% protection) (concentration 0.001 mM) [%]	Survival (% protection) (concentration 0.005 mM) [%]	Survival (% protection) (concentration 0.01 mM (MNC)) [%]	% protection of the MT-4 cells in MNC (Table 3, MT-4 cells infected with HIV-1, MTT assay, at MNC) [%]	SI = CC50/IC50
O=c1oc2cc(O)cc(O)c2c(O)c1-c1coc2c1c(=O)oc1cc(O)cc(O)c12 [Compound 1, 7,9-dihydroxy-3-(4,5,7-trihydroxy-2-oxo-2H-chromene-3-yl)-4H-furo[3,2-c]chromen-4-one]	10	0	50	55	60	75	92	100	1000 · 10^3
O=c1oc2cc(O)c(O)cc2c(O)c1-c1coc2c1c(=O)oc1cc(O)c(O)cc12 [Compound 2, 7,8-dihydroxy-3-(4,6,7-trihydroxy-2-oxo-2H-chromen-3-yl)-4H-furo[3,2-c]chromen-4-one, reference compound]	5000	0	0	0	25	50	55		2 · 10^3
